# Laboratory results taken from patent US20020106348A1, “Cancer therapeutics involving the administration of 2-methoxyestradiol and an agent that increases intracellular superoxide anion” (priority 2000, published 2002).
# Structures can show the parent of a compound that is named as a salt. Where two headings read alike, the source gives them in different places.
# How the values were obtained:
# HL-60 = experiment: Apoptosis / nucleosomal DNA fragmentation in HL-60 cells; type: cell-based, human; settings: for DNA fragmentation (apoptosis) in HL-60 cells: estrogen derivatives, FIG. 20; for effect on 2-ME-induced apoptosis: HL-60, 1 μM 2-ME plus antioxidant
# CuZnSOD = experiment: Inhibition of CuZnSOD by estrogen derivatives; type: biochemical; settings: FIG. 20
# [1] = cited from earlier work; for elimination half-life: intravenous
# CLL cells [2] = settings: for protection from toxic effect of 2-ME: antioxidant added to 2-ME-treated CLL cells
# CLL cells [3] = experiment: Cellular O2^- by hydroethidine flow cytometry, CLL cells; type: cell-based, human; settings: addition of NAC to 2-ME-treated CLL cells
# Method: The method using hydroethidine to detect O2^− in tissue sections was adapted for quantitation of intracellular O2^− by flow cytometry analysis. This assay is based on the unique chemical properties of hydroethidine, a weak blue fluorescent dye which is selectively converted by O2^− to ethidium with a bright red fluorescence. The control and drug-treated cells (1.5×10^6/sample) were incubated with hydroethidine (20 ng/ml) for 60 min, washed twice with 3 ml PBS, resuspended in 2 ml PBS, and then analyzed within 1 h by flow cytometry, using the red laser channel.
# [4] = test system: leukemia cells from a CML (chronic myelogenous leukemia) patient in relapsed blast crisis; experiment: Induction of apoptosis in primary leukemia cells from a CML patient; type: cell-based, human; settings: in vitro
# HL-60 cells = experiment: Cellular O2^- by flow cytometry, HL-60 cells; type: cell-based, human; settings: 0.25 μM
# [5] = target: NADH:ubiquinone oxidoreductase; phorbol ester-induced ornithine decarboxylase (ODC); settings: Fang et al, 1998; read-out: IC50 values, NADH:ubiquinone oxidoreductase inhibition / blocking ODC induction; cited from earlier work
# c-myc protein = c-myc protein expression in B CLL cells; type: cell-based, human; settings: Rituxan alone
compound,measurement,setting,value
C[C@]12CC[C@@H]3c4cc(O)c(O)cc4CC[C@H]3[C@@H]1CC[C@@H]2O [2-hydroxyestradiol],DNA fragmentation (apoptosis) in HL-60 cells,HL-60,induced DNA fragmentation
same,inhibition of SOD activity,CuZnSOD,substantially inhibited SOD activity
COc1cc2c(cc1O)CC[C@@H]1[C@@H]2CC[C@]2(C)C(=O)CC[C@@H]12 [2-methoxyestrone],DNA fragmentation (apoptosis) in HL-60 cells,HL-60,induced DNA fragmentation
same,inhibition of SOD activity,CuZnSOD,substantially inhibited SOD activity
C[C@]12CC[C@@H]3c4ccc(O)cc4CC[C@H]3[C@@H]1CC[C@@H]2O [17β-estradiol],DNA fragmentation (apoptosis) in HL-60 cells,HL-60,little DNA fragmentation
same,inhibition of SOD activity,CuZnSOD,minimal activity against SOD
"COc1cccc2c1C(=O)c1c(O)c3c(c(O)c1C2=O)C[C@@](O)(C(C)=O)C[C@@H]3O[C@H]1C[C@H](N)[C@H](O)[C@H](C)O1 [Daunorubicin, 5,12-Naphthacenedione, (8S-cis)-8-acetyl-10-[(3-amino-2,3,6-trideoxy-α-L-lyxo-hexanopyranosyl)oxy]-7,8,9,10-tetrahydro-6,8,11-trihydroxy-10-methoxy-, hydrochloride]",secreted into the bile,[1]; in vivo,~40%
same,elimination half-life,[1],about 19 hr
"COc1cccc2c1C(=O)c1c(O)c3c(c(O)c1C2=O)C[C@@](O)(C(=O)CO)C[C@@H]3O[C@H]1C[C@H](N)[C@H](O)[C@H](C)O1 [Doxorubicin, 5,12-Naphthacenedione, (8s-cis)-10-[(3-amino-2,3,6-trideoxy-α-L-lyxo-hexopyranosyl)oxy]-7,8,9,10-tetrahydro-6,8,1-trihydroxy-8-(hydroxyacetyl)-1-methoxy-hydrochloride]",elimination half-life,[1],about 30 hr
"CC(=O)N[C@@H](CS)C(=O)O [N-acetylcysteine, reference compound]",protection from toxic effect of 2-ME,CLL cells [2],protective effect
same,protection from toxic effect of 2-ME,CLL cells [2]; listed as NAC,protected the cells from the toxic effect of 2-ME
same,cellular O2^− in 2-ME-treated cells,CLL cells [3],reduced the accumulation of cellular O2^−
same,effect on 2-ME-induced apoptosis,HL-60,2-ME-induced apoptosis was significantly reduced
Nc1c(Br)cc(Br)cc1CN[C@H]1CC[C@H](O)CC1 [ambroxol],effect on 2-ME-induced apoptosis,HL-60,2-ME-induced apoptosis was significantly reduced
"Nc1ccn([C@@H]2O[C@H](CO)[C@@H](O)[C@@H]2O)c(=O)n1 [ara-C, reference compound]",apoptosis in primary CML cells,[4],resistant
COc1cccc2c1C(=O)c1c(O)c3c(c(O)c1C2=O)C[C@@](O)([C@H](C)O)C[C@@H]3O[C@H]1C[C@H](N)[C@H](O)[C@H](C)O1 [daunorubicinol],elimination half-life,[1],about 27 hr
"C=C(C)[C@H]1Cc2c(ccc3c2O[C@@H]2COc4cc(OC)c(OC)cc4[C@@H]2C3=O)O1 [rotenone, reference compound]",cellular O2^− content,HL-60 cells,increase of cellular O2^−
same,IC50,[5],0.8 to 4 nM
Rituxan: antibody specific for CD20 antigen on B lymphocyte,killing of CLL cells,"CLL cells [2]; Rituxan alone, various concentrations",did not result in any significant killing
same,enhancement of 2-ME activity,CLL cells [2]; cells sensitive or resistant to 2-ME,did not significantly enhance the activity of 2-ME
same,c-myc protein expression,c-myc protein,increased expression of c-myc protein
Sodium Arsenate [reference compound],sensitivity to single agent,CLL cells [2]; 2-ME-resistant CLL cells,insensitive to either drug alone
same,sensitivity to single agent,CLL cells [2]; CLL cells of the two sensitive patients,relatively sensitive
